Assay results as given in the supplement of paper PMC10307832.

Assays:
Assay in all cases: relative viability (nuclei count vs DMSO), 5 days (fraction); higher = more cells survive
IMD-0354 + OSI-027 = compound: O=C(Nc1cc(C(F)(F)F)cc(C(F)(F)F)c1)c1cc(Cl)ccc1O [IMD-0354] + COc1cccc2cc(-c3nc([C@H]4CC[C@H](C(=O)O)CC4)n4ncnc(N)c34)[nH]c12 [OSI-027] (partner 0.5 µM)
In short: (§1)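 Relative viability was taken as the ratio of nuclei in treated wells to nuclei in vehicle wells. Lung cancer cell lines in 1536-well plates received compounds by pin tool one day after seeding, either one drug alone or a fixed anchor-drug dose plus five library-drug doses (not always all listed) in √10 steps. Nuclei were counted on 4× images after 5 days of treatment, and values are medians of duplicate plates.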

IMD-0354 + Alpelisib = compound: O=C(Nc1cc(C(F)(F)F)cc(C(F)(F)F)c1)c1cc(Cl)ccc1O [IMD-0354] + Cc1nc(NC(=O)N2CCC[C@H]2C(N)=O)sc1-c1ccnc(C(C)(C)C(F)(F)F)c1 [Alpelisib] (partner 2 µM)
In short: as §1

IMD-0354 + Vorinostat = compound: O=C(Nc1cc(C(F)(F)F)cc(C(F)(F)F)c1)c1cc(Cl)ccc1O [IMD-0354] + O=C(CCCCCCC(=O)Nc1ccccc1)NO [Vorinostat] (partner 1 µM)
In short: as §1

IMD-0354 + Linsitinib = compound: O=C(Nc1cc(C(F)(F)F)cc(C(F)(F)F)c1)c1cc(Cl)ccc1O [IMD-0354] + C[C@]1(O)C[C@@H](c2nc(-c3ccc4ccc(-c5ccccc5)nc4c3)c3c(N)nccn32)C1 [Linsitinib] (partner 1 µM)
In short: as §1

| Cell Line | relative viability (IMD-0354 + OSI-027; first compound 0.04 µM) | relative viability (IMD-0354 + OSI-027; first compound 0.1265 µM) | relative viability (IMD-0354 + OSI-027; first compound 0.4 µM) | relative viability (IMD-0354 + OSI-027; first compound 1.265 µM) | relative viability (IMD-0354 + OSI-027; first compound 4 µM) | relative viability (IMD-0354 + Alpelisib; first compound 0.04 µM) | relative viability (IMD-0354 + Alpelisib; first compound 0.1265 µM) | relative viability (IMD-0354 + Alpelisib; first compound 0.4 µM) | relative viability (IMD-0354 + Alpelisib; first compound 1.265 µM) | relative viability (IMD-0354 + Alpelisib; first compound 4 µM) | relative viability (IMD-0354 + Vorinostat; first compound 0.04 µM) | relative viability (IMD-0354 + Vorinostat; first compound 0.1265 µM) | relative viability (IMD-0354 + Vorinostat; first compound 0.4 µM) | relative viability (IMD-0354 + Vorinostat; first compound 1.265 µM) | relative viability (IMD-0354 + Vorinostat; first compound 4 µM) | relative viability (IMD-0354 + Linsitinib; first compound 0.04 µM) | relative viability (IMD-0354 + Linsitinib; first compound 0.1265 µM) | relative viability (IMD-0354 + Linsitinib; first compound 0.4 µM) | relative viability (IMD-0354 + Linsitinib; first compound 1.265 µM) | relative viability (IMD-0354 + Linsitinib; first compound 4 µM) |
| --- | --- | --- | --- | --- | --- | --- | --- | --- | --- | --- | --- | --- | --- | --- | --- | --- | --- | --- | --- | --- |
| NCI-H1437 | 0.915 | 0.763 | 0.544 | 0.22 | 0.25 | 1.24 | 1.07 | 0.711 | 0.219 | 0.239 | 0.842 | 0.81 | 0.432 | 0.251 | 0.263 | 1.2 | 1.01 | 0.515 | 0.114 | 0.249 |
| NCI-H650 | 0.591 | 0.498 | 0.447 | 0.29 | 0.177 | 1.03 | 1.07 | 0.943 | 0.615 | 0.215 | 0.385 | 0.445 | 0.349 | 0.366 | 0.133 | 1.01 | 0.911 | 0.505 | 0.249 | 0.223 |
| COR-L23 | 0.767 | 0.679 | 0.397 | 0.145 | 0.178 | 0.728 | 0.776 | 0.427 | 0.136 | 0.164 | 0.419 | 0.466 | 0.403 | 0.0935 | 0.149 | 0.764 | 0.73 | 0.388 | 0.116 | 0.158 |
| COR-L 105 | 0.812 | 0.697 | 0.533 | 0.363 | 0.23 | 1.06 | 0.76 | 0.902 | 0.604 | 0.287 | 0.863 | 0.771 | 0.672 | 0.679 | 0.378 | 1.05 | 0.682 | 0.638 | 0.613 | 0.265 |
| NCI-H1395 | 0.69 | 0.755 | 0.651 | 0.43 | 0.256 | 0.992 | 0.889 | 0.98 | 0.465 | 0.324 | 0.873 | 0.691 | 0.616 | 0.375 | 0.408 | 1.02 | 1.28 | 0.99 | 0.395 | 0.42 |
| 201T | 0.596 | 0.882 |  | 0.553 | 0.175 | 1.02 | 1.08 | 0.683 | 1.1 | 0.351 | 0.958 | 1.07 | 0.813 | 0.537 | 0.31 | 1.13 | 1.01 | 1.02 | 1.06 | 0.385 |
| HCC-44 | 0.556 | 0.562 | 0.334 | 0.285 | 0.215 | 0.857 | 0.728 | 0.379 | 0.185 | 0.134 | 1.03 | 1.05 | 1.07 | 0.873 | 0.364 | 0.68 | 0.573 | 0.394 | 0.297 | 0.128 |
| NCI-H596 | 0.881 | 0.812 | 0.429 | 0.793 | 0.246 | 0.484 | 0.458 | 0.466 | 0.528 | 0.326 | 0.631 | 0.694 | 0.413 | 0.671 | 0.461 | 0.973 | 1.05 | 0.839 | 1.21 | 0.682 |
